Converted amounts (≈) assume the structure as drawn. “Also recorded” adds a separate entry of the source.
Columns and labels:
UTI89 [1] = test: Mouse model of acute UTI, bladder bacterial CFU after UTI89 infection; type: in vivo, Escherichia coli; settings: for total bacterial CFUs in the bladder: mice, 6 hpi
Experimental: The efficacy of in vivo mannoside treatment was evaluated after orally dosing animals with 50 mg/kg of mannosides ZFH-4269 (FIG. 1A), ZFH-5254 (FIG. 1B) and ZFH-5240 (FIG. 1C) or DMSO or PBS 30 min prior to infecting with UTI89. At 6 hours post-infection (hpi) the bladders were removed and total bacterial CFUs were quantitated. […] Next, analogs of 254 were evaluated in the same mouse model of urinary tract infection. Animals were orally dosed with 25 mg/kg of mannosides ZFH-4269 (FIG. 2A), 1CJ68 (FIG. 2B) and 1CJ70 (FIG. 2C) in 10% cyclodextrin or 10% cyclodextrin 30 min prior to infecting with UT189.
The efficacy of in vivo mannoside treatment was evaluated after orally dosing animals with 25 mg/kg of mannosides ZFH269, Prodrug FIM-4269, ZFH-5254, and ZFH-5240 in 10% cyclodextrin or 10% cyclodextrin 30 min prior to infecting with UTI89. At 6 hours post-infection (hpi) the bladders were removed and total bacterial CFUs were quantitated. […] Next, several different prodrugs were evaluated in the same mouse model of urinary tract infection. Animals were orally dosed with 25 mg/kg of mannosides ZFH-4269, prodrug FIM-1233 (FIG. 8B), prodrug FIM-6123 (FIG. 8C) and prodrug 269 in 10% cyclodextrin or 10% cyclodextrin 30 min prior to infecting with UT189.
(§1) The FimH-mannose interaction was further investigated in an effort to develop potential ligand-based antagonists of UTIs. […] The non-reducing Man4 anchors into the mannose-binding pocket while the GlcNAc folds over Thr51 allowing specific interactions with a hydrophobic tyrosine gate. Heptyl mannoside mimics the GlcNAc tail of oligomannose-3 and extends it further to increase interactions outside the binding pocket resulting in high affinity binding (Kd=5 nM). Based on the high affinity of heptyl mannose for FimH, the ability of heptyl mannose to reduce bacterial infection in our mouse model of UTI was tested. First, biofilm formation as a surrogate for IBCs formed in the bladder was evaluated. […] Thus, UPEC strain UTI89 was incubated with heptyl mannose prior to inoculation into the bladders of mice.
Bacteria were grown under type 1 pili-inducing conditions (2×24 h at 37° C. statically in LB). The bacteria were harvested and resuspended to an OD600 of 0.5 in PBS. Eight-week-old C3H/HeN (Harlan) female mice were anesthetized by inhalation of isoflurane and infected via transurethral catheterization with […] of the bacterial suspension, resulting in 1-2×10^7 inoculum. At 6 hpi, mice were sacrificed by cervical dislocation under anesthesia and the bladders were immediately harvested and processed as described below. All animal studies using mice were approved by the Animal Studies Committee of Washington University (Animal Protocol Number 20100002).
Mannoside ZFH-2056 was administered either IP (5 mg/kg) or orally (100 mg/kg) 30 min prior to inoculation with UTI89. To enumerate the bacteria present, mice were sacrificed at 6 hpi and bladders were aseptically removed and homogenized in 1 ml PBS, serially diluted and plated onto LB agar plates. CFU was enumerated after 16 h of growth at 37° C.

FimH [2] = target: T1, FimH (Escherichia coli, UniProt P08191); test: Binding affinity to FimH; set-up: species or system E. coli
T1 construct: endogenous in cells; host or cells: type 1 piliated uropathogenic E. coli (UPEC)
T1 sequence (P08191 22-300): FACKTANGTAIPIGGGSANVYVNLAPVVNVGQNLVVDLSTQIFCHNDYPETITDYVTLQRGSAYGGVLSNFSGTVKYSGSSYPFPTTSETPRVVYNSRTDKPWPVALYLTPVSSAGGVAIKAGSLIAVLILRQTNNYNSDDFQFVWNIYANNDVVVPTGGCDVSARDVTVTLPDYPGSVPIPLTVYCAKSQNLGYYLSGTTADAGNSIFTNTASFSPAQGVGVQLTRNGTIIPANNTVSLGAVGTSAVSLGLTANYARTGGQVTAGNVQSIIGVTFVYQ
Experimental: as §1

UPEC biofilm formation = test: Biofilm assay; type: cell-based, Escherichia coli; settings: 1 mM
Experimental: as §1
UTI89 was grown in LB broth in wells of PVC microtiter plates at 23° C. in the presence of individual mannosides at varying concentrations. After 48 h of growth, wells were rinsed with water and stained with crystal violet for quantification as described. For biofilm disruption activity in PVC plates, UTI89 was grown in LB broth in wells of PVC microtiter plates at 23° C. After 24 h of growth, mannoside was added and biofilms were grown for an additional 16 h. Wells were then rinsed, stained with crystal violet and quantified. […]

UTI89 [3] = test: UTI89 biofilm formation in urine under flow; type: cell-based, Escherichia coli; settings: 1% in urine under flow
Excerpt: To investigate the potential therapeutic effects of mannosides on CAUTI, we first assessed the inhibitory effects of methyl-a-D-mannopyranoside (methyl mannose), on UTI89 biofilm formation in urine under flow.

PBC-1 = test: Growth curve / MIC in TMP-SMZ, PBC-1; type: cell-based; settings: Escherichia coli; PBC-1, growth curves in TMP-SMZ; read-out: Minimum Inhibition Concentration (MIC)
Experimental: (§2) Mice were IP treated with 6 30 min prior to inoculation with bacteria and compared to a control group of untreated animals. After inoculation with UTI89 or PBC-1, bacterial CFUs were quantified at 6 hpi.
Mannoside ZFH-2056 was added at 100 μM. Growth curves were performed in a 96-well plate at 37° C. with A600 readings taken every 30 min for 8 h.

[4] = mice, after 3 days of 54 μg/ml TMP and 270 μg/ml SMZ in drinking water
Experimental: as §2
Water was changed daily for 3 days prior to inoculation with UTI89.

UTI89 [5] = test: microbe, parasite or virus in culture; settings: Escherichia coli
[6] = Mouse oral PK, mannoside concentration in urine; type: in vivo; settings: mice, 50 mg/kg oral; for detectability in urine: samples at 1, 3, 6 and 8 hours
Experimental: Compounds ZFH-4269 (FIG. 6A), ZFH-5254 (FIG. 6B), ZFH5240 (FIG. 6C), and a Prodrug were dosed at 50 mg/kg and plasma and urine samples were taken at 1, 3, 6 and 8 hours after dosing. […] Taken together, the high oral bioavailability and in vivo efficacy observed in animal studies support mannosides as promising therapeutic candidates for UTI treatment/prevention.
For intraperitoneal dosing, 50 μl of a 2 mg/ml (5 mg/kg) or 4 mg/ml (10 mg/kg) solution of ZFH-2056 in PBS was injected into the peritoneal cavity of the mouse. For oral dosing, 100 μl of a 20 mg/ml (100 mg/kg) solution of ZFH-2056 in 8% DMSO was inoculated with a gavage needle into the mouse stomach. Urine was collected at 30 min, 1, 2, 3, 4, 6, and 8 h post-treatment. An equal volume of 10 μM internal standard (ZFH-2050) was added to the urine. Mannosides were extracted from the urine by loading on C18 columns (100 mg, Waters), washing with 30% methanol, and eluting with 60% methanol. Vacuum-concentrated eluates were analyzed using liquid chromatography-mass spectrometry system30 with a lower heated capillary temperature of 190° C. and a gradiert as follows: Solvent B (80% acetonitrile in 0.1% formic acid) was held constant at 5% for 5 minutes, increased to 44% B by 45 minutes, and then to a 95% B by 65 minutes. SRM mode quantification was performed with collision gas energy of 30% for the following MS/MS transitions (precursor m/z/product m/z): compound ZFH-2056, 447/285; compound ZFH-2050, 390/228. Absolute quantification was achieved by comparison to a calibration curve.

FimH [7] = target: T1, FimH; test: Hemagglutination inhibition (HAI) assay, guinea pig red blood cells; type: cell-based, E. coli; settings: concentration inhibiting >90% hemagglutination of guinea pig red blood cells
Experimental: FIG. 15 depicts the hemagglutination assay (HA) used to assess the compounds' ability to block FimH mediated binding. The HAI titer quantitatively measure the effect of inhibitors on blocking the FimH-mediated hemagglutination (HA) of guinea pig red blood cell infected with E. coli.
In some embodiments, activity of the compound is measured using hemmagglutination titer of guinea pig red blood cells. Hemagglutination of guinea pig red blood cells by type1 piliated UPEC is dependent upon FimH mannose binding ability and serial dilutions allow a quantitative analysis.
Hemagglutination assays for mannose-sensitive agglutination of guinea pig red blood cells were performed as previously described.

[8] = Rat pharmacokinetics, IV and PO; type: in vivo
Experimental: Mannoside compounds FIM-4269, FIM-5240, FIM-5254, FIM-1CJ82 and FIM-1CJ66 (FIG. 3) were evaluated for pharmacokinetics in the rat. Mannosides were dose IV at 3 mg/kg and PO at 10 mg/kg. Urine and plasma were collected at 15 min, 30 min, 1 hour, 2 hours, 4 hours and 8 hours.

[9] = 25 mg/kg oral in 10% cyclodextrin 30 min prior to infecting with UTI89

## CCCCCCCO[C@H]1O[C@H](CO)[C@@H](O)[C@H](O)[C@@H]1O [Heptyl mannoside]
UTI89 [1]; UTI89 incubated with 5 mM compound prior to inoculation into bladders, 6 hours post-infection
  virulence in mouse model of UTI: significant attenuation of virulence
FimH [2]
  Kd: 5 nM
UPEC biofilm formation
  UPEC biofilm formation in vitro: inhibited UPEC biofilm formation

## CO[C@H]1O[C@H](CO)[C@@H](O)[C@H](O)[C@@H]1O [methyl mannose, methyl-a-D-mannopyranoside]
UTI89 [3]; p=0.0012 vs untreated
  biofilm-adherent cells: significantly reduced
UTI89 [3]; p=0.0022 vs untreated
  biofilm biomass: significantly reduced

## COc1cc(Cc2cnc(N)nc2N)cc(OC)c1OC [TMP, Trimethoprim]
PBC-1
  MIC: 256 µg/mL (≈ 882 µM)
[4]
  TMP concentration in urine: 9.95 ± 4.36 mg/mL
UTI89 [5]
  MIC: 0.05 µg/mL (≈ 0.172 µM)

## Cc1cc(NS(=O)(=O)c2ccc(N)cc2)no1 [SMZ, Sulfamethoxazole]
PBC-1
  MIC: 1280 µg/mL (≈ 5050 µM)
UTI89 [5]
  MIC: 0.25 µg/mL (≈ 0.987 µM)

## CNC(=O)c1cccc(-c2ccc(O[C@H]3O[C@@H](CO)[C@@H](O)[C@H](O)[C@H]3O)c(C)c2)c1 [ZFH-4269, N-methyl-3-[3-methyl-4-[(2R,3R,4S,5S,6S)-3,4,5-trihydroxy-6-(hydroxymethyl)tetrahydropyran-2-yl]oxy-phenyl]benzamide]
UTI89 [1]; acute UTI model (FIG. 27D)
  bladder titers: significantly reduce bladder titers
UTI89 [1]; 25 mg/kg oral in 10% cyclodextrin 30 min prior to infecting with UTI89, 25 mg/kg
  total bacterial CFUs in the bladder: drop in bacterial counts
UTI89 [1]; 25 mg/kg oral in 10% cyclodextrin 30 min prior to infecting with UTI89, listed as ZFH269, 25 mg/kg
  total bacterial CFUs in the bladder: drop in bacterial counts; also recorded: most efficiently reduced bacterial titers in the bladder; also recorded: significantly reduced bacterial titers in the bladder
UTI89 [1]; 50 mg/kg oral 30 min prior to infecting with UTI89, vs DMSO or PBS, 50 mg/kg
  total bacterial CFUs in the bladder: drop in bacterial counts
UTI89 [1]; 50 mg/kg oral 30 min prior to infecting with UTI89, vs DMSO or PBS, listed as 269, 50 mg/kg
  total bacterial CFUs in the bladder: reduced bacterial titers in the bladder relative to DMSO and PBS
[6]
  detectability in urine: detectable in the urine out to 8 hours post-treatment

## CNC(=O)c1cccc(-c2ccc([C@@H](O)C3OC(CO)C(O)C(O)C3O)c(C)c2)c1 (single isomer, unassigned) [Example 18A]
FimH [7]
  HAI Titer EC>90: 0.031 µM
UTI89 [1]; [9]
  total bacterial CFUs in the bladder: drop in bacterial counts
UTI89 [1]; 50 mg/kg oral 30 min prior to infecting with UTI89, vs DMSO or PBS, listed as 240, 50 mg/kg
  total bacterial CFUs in the bladder: reduced bacterial titers in the bladder relative to DMSO and PBS
UTI89 [1]; 50 mg/kg oral 30 min prior to infecting with UTI89, vs DMSO or PBS, listed as ZFH-5240, 50 mg/kg
  total bacterial CFUs in the bladder: drop in bacterial counts
[8]; IV 3 mg/kg
  time plasma concentration remained above the limit of detection: 2.5 h
[8]; IV 3 mg/kg, listed as FIM-5240, 3 mg/kg
  mean plasma concentration / PK after IV dose: the highest relative to the other 4 mannosides; also recorded: best PK
[8]; PO 10 mg/kg
  pharmacokinetics after PO dose: best pharmacokinetics relative to the other mannosides
  time at which plasma concentration fell below the limit of detection: 2 h
[6]
  detectability in urine: detectable in the urine out to 8 hours post-treatment
[6]; within a 6-hour period
  level of concentration in the urine: consistently maintained a high level of concentration in the urine

## Cc1cc(-c2ccc3cc[nH]c(=O)c3c2)ccc1O[C@H]1O[C@@H](CO)[C@@H](O)[C@H](O)[C@H]1O [Example 7, 7-[3-methyl-4-[(2R,3R,4S,5S,6S)-3,4,5-trihydroxy-6-(hydroxymethyl)tetrahydropyran-2-yl]oxy-phenyl]-2H-isoquinolin-1-one]
FimH [7]
  HAI Titer EC>90: 0.030 µM
UTI89 [1]; [9]
  total bacterial CFUs in the bladder: drop in bacterial counts
UTI89 [1]; 50 mg/kg oral 30 min prior to infecting with UTI89, vs DMSO or PBS, listed as 254, 50 mg/kg
  total bacterial CFUs in the bladder: reduced bacterial titers in the bladder relative to DMSO and PBS
UTI89 [1]; 50 mg/kg oral 30 min prior to infecting with UTI89, vs DMSO or PBS, listed as ZFH-5254, 50 mg/kg
  total bacterial CFUs in the bladder: drop in bacterial counts
[6]
  detectability in urine: detectable in the urine out to 8 hours post-treatment

From US9957289B2, “Compounds and methods for treating bacterial infections” (Washington University, priority 2013, dated 2018)
